Like-named read-outs stand apart in the source and are kept apart here.
Columns and labels:
[1] = target: CA hexamer_M66I (Human immunodeficiency virus type 1 group M subtype B, UniProt P12493, A146C/E177C/M198I/M317A/W316A); experiment: Surface plasmon resonance binding assay; design: species or system HIV-1
[2] = Study GS-US-200-4072: pharmacokinetics in participants living with HIV; assay type: in vivo, human; settings: for CD9 / paEC95 (mean), fold EC95 coverage on day 9: PLWH; for concentration at 9 day: both, human, plasma, sc
[3] = target: CA hexamer (Human immunodeficiency virus type 1 group M subtype B, UniProt P12493, A146C/E177C/M317A/W316A); experiment: Surface plasmon resonance binding assay; design: species or system HIV-1
[4] = tested on: clinical HIV-1 isolates; experiment: 7-day RT endpoint antiviral assay in human PBMCs, clinical HIV-1 isolates; settings: Human immunodeficiency virus 1, PBMC
[5] = tested on: HIV-1BaL; experiment: p24 endpoint antiviral assay in primary human CD4+ T-lymphocytes; assay type: cell-based; settings: Human immunodeficiency virus 1, CD4+ T, read-out: mean EC50
[6] = Cytotoxicity assay; assay type: cell-based; settings: human, quiescent PBMCs
[7] = target: Gag polyprotein (Human immunodeficiency virus type 1 group M subtype B, UniProt P12493); experiment: biochemical; assay type: binding
[8] = assay type: in vivo, human; settings: for AUCexp: healthy volunteers, mean (%CV); for time plasma concentrations exceeded paEC95: single SC, healthy participants
[9] = Cytotoxicity assay; assay type: cell-based; settings: human, primary CD4+ T-lymphocytes
[10] = Cytotoxicity assay; assay type: cell-based; settings: human, Gal-PC-3 cells
[11] = target: CA pentamer (Human immunodeficiency virus type 1 group M subtype B, UniProt P12493, A154C/M317A/N153C/W316A); experiment: biochemical; assay type: binding
[12] = Study GS-US-200-4070: safety and tolerability in healthy participants; assay type: in vivo, human; settings: for Acne / Any AE / Back pain / Dizziness / Headache / Injection site bruising / Injection site erythema / Injection site induration / Injection site nodule / Injection site pain / Injection site pruritus / Injection site swelling / Nausea / Oropharyngeal pain / Skin mass / Viral upper respiratory tract infection: healthy
[13] = tested on: HIV-1IIIb; experiment: microbe, parasite or virus in culture; assay type: cell-based
[14] = Cytotoxicity assay; assay type: cell-based; settings: human, monocyte-derived macrophages
[15] = both, human, plasma, sc, 100 mg
[16] = both, human, plasma, sc, 300 mg
[17] = both, human, plasma, sc, 450 mg

## CC(C)(C#Cc1ccc(-c2ccc(Cl)c3c(NS(C)(=O)=O)nn(CC(F)(F)F)c23)c([C@H](Cc2cc(F)cc(F)c2)NC(=O)Cn2nc(C(F)(F)F)c3c2C(F)(F)[C@@H]2C[C@H]32)n1)S(C)(=O)=O [GS-6207]
[1]
  Kd: 60 nM
[1]; CA hexamer_M66I
  koff: 2.6 ± 0.3 x 10^−3 s^−1
  kon: 6 ± 4 x 10^4 M^−1s^−1
[2]; 20 mg SC
  CD9 / paEC95 (mean), fold EC95 coverage on day 9: 0.67
[2]; 50 mg SC
  CD9 / paEC95 (mean), fold EC95 coverage on day 9: 1.14
[2]; 150 mg SC
  CD9 / paEC95 (mean), fold EC95 coverage on day 9: 3.33
[2]; 450 mg SC
  CD9 / paEC95 (mean), fold EC95 coverage on day 9: 9.87
[2]; 20 mg
  concentration at 9 day: 0.00258 µg/mL
[2]; 50 mg
  concentration at 9 day: 0.0044 µg/mL
[2]; 150 mg
  concentration at 9 day: 0.0129 µg/mL
[2]; 450 mg
  concentration at 9 day: 0.0382 µg/mL
[3]
  Kd: 0.24 ± 0.09 nM
[3]; CA hexamer
  koff: 1.4 ± 0.4 x 10^−5 s^−1
  kon: 6.5 ± 0.3 x 10^4 M^−1s^−1
[4]; read-out: EC50 range
  EC50: 0.02 to 0.16 nM
[4]; read-out: mean EC50
  EC50: 0.05 nM
[5]
  EC50: 0.032 nM
[6]
  CC50: > 44400 nM
[7]
  Kd: 1.1 nM
[8]; 30 mg SC
  AUCexp: 17.6 (69.4) %
[8]; 100 mg SC
  AUCexp: 6.78 (65.0) %
[8]; 300 mg SC
  AUCexp: 5.39 (126) %
[8]; 450 mg SC
  AUCexp: 3.29 (69.9) %
[8]; both, human, plasma, sc, 30 mg
  AUC(0-inf): 8.7 µg·h/mL
  AUC(0-t): 5.5 µg·h/mL
  Cmax: 0.0032 µg/mL
  half-life: 37 days
[8]; [15]
  AUC(0-inf): 27.3 µg·h/mL
  AUC(0-t): 23.6 µg·h/mL
  Cmax: 0.0147 µg/mL
  half-life: 31.9 days
[8]; [16]
  AUC(0-inf): 86.1 µg·h/mL
  AUC(0-t): 73.1 µg·h/mL
  Cmax: 0.0479 µg/mL
  half-life: 45.4 days
[8]; [17]
  AUC(0-inf): 108 µg·h/mL
  AUC(0-t): 97.6 µg·h/mL
  Cmax: 0.0584 µg/mL
  Tmax: 14 days
  half-life: 39.7 days
[8]; doses ≥ 100 mg
  time plasma concentrations exceeded paEC95: ≥ 12 weeks
[8]; doses ≥ 300 mg
  time plasma concentrations exceeded paEC95: > 24 weeks
[8]; single subcutaneous dose 450 mg
  duration of sustained plasma exposure at antivirally active concentrations: > 6 months
[9]
  CC50: > 50000 nM
[10]
  CC50: > 44400 nM
[11]
  Kd: 0.22 ± 0.16 nM
[11]; CA pentamer
  koff: 2.7 ± 0.4 x 10^−5 s^−1
  kon: 2 ± 1 x 10^5 M^−1s^−1
[12]; 30 mg (n = 8)
  Acne: 0 n (%)
  Any AE: 4 (50) n (%)
  Back pain: 0 n (%)
  Dizziness: 0 n (%)
  Headache: 2 (25) n (%)
  Injection site bruising: 0 n (%)
  Injection site erythema: 1 (13) n (%)
  Injection site induration: 0 n (%)
  Injection site nodule: 0 n (%)
  Injection site pain: 0 n (%)
  Injection site pruritus: 1 (13) n (%)
  Injection site swelling: 1 (13) n (%)
  Nausea: 1 (13) n (%)
  Oropharyngeal pain: 1 (13) n (%)
  Skin mass: 0 n (%)
  Viral upper respiratory tract infection: 0 n (%)
[12]; 100 mg (n = 8)
  Acne: 0 n (%)
  Any AE: 8 (100) n (%)
  Back pain: 0 n (%)
  Dizziness: 0 n (%)
  Headache: 1 (13) n (%)
  Injection site bruising: 0 n (%)
  Injection site erythema: 5 (63) n (%)
  Injection site induration: 0 n (%)
  Injection site nodule: 5 (63) n (%)
  Injection site pain: 3 (38) n (%)
  Injection site pruritus: 0 n (%)
  Injection site swelling: 5 (63) n (%)
  Nausea: 0 n (%)
  Oropharyngeal pain: 0 n (%)
  Skin mass: 0 n (%)
  Viral upper respiratory tract infection: 0 n (%)
[12]; 300 mg (n = 8)
  Acne: 0 n (%)
  Any AE: 7 (88) n (%)
  Back pain: 2 (25) n (%)
  Dizziness: 1 (13) n (%)
  Headache: 2 (25) n (%)
  Injection site bruising: 1 (13) n (%)
  Injection site erythema: 6 (75) n (%)
  Injection site induration: 6 (75) n (%)
  Injection site nodule: 3 (38) n (%)
  Injection site pain: 6 (75) n (%)
  Injection site pruritus: 1 (13) n (%)
  Injection site swelling: 1 (13) n (%)
  Nausea: 1 (13) n (%)
  Oropharyngeal pain: 0 n (%)
  Skin mass: 1 (13) n (%)
  Viral upper respiratory tract infection: 0 n (%)
[12]; 450 mg (n = 8)
  Acne: 2 (25) n (%)
  Any AE: 6 (75) n (%)
  Back pain: 0 n (%)
  Dizziness: 1 (13) n (%)
  Headache: 0 n (%)
  Injection site bruising: 0 n (%)
  Injection site erythema: 3 (38) n (%)
  Injection site induration: 2 (25) n (%)
  Injection site nodule: 1 (13) n (%)
  Injection site pain: 3 (38) n (%)
  Injection site pruritus: 1 (13) n (%)
  Injection site swelling: 0 n (%)
  Nausea: 0 n (%)
  Oropharyngeal pain: 0 n (%)
  Skin mass: 1 (13) n (%)
  Viral upper respiratory tract infection: 2 (25) n (%)
[12]; single SC 30 to 450 mg, healthy participants
  safety and tolerability: generally safe and well tolerated
[13]; Human immunodeficiency virus 1, MT4, read-out: mean EC50
  EC50: 0.105 nM
[13]; calculated from EC50 and Hill coefficient
  EC95: 0.23 nM
[14]
  CC50: > 50000 nM
